We go through one compound from US20260276656A1, “GUT MICROBIOTA-RELATED METHODS FOR TREATING DEMENTIA AND AGE-DEPENDENT COGNITIVE DECLINE” (Albert-Ludwigs-Universitat Freiburg, priority 2019, published 2026).

This assay has as its system medial prefrontal cortex neurons. Briefly: In vivo single unit recordings from medial prefrontal cortex during natural sleep, spike rate and population coupling. Set-up: species or system mouse. Conditions: 5 mg/kg body weight i.p.; versus PBS; normalized to baseline; FIG. 9B. The protocol:
C57BL/6J mice aged 10-11 weeks were anesthetized with isofluorane (induction: 3%, maintenance approximately 1.5%). Buprenorphin (0.05-0.1 mg/kg body weight) and Carprofen (4-5 mg/kg body weight) were injected for analgesia. During implantation, the body temperature was maintained with a heating pad. The skin was incised from the cerebellum to the nose and the bone cleaned with 3% H2O2. Ground and reference screws (1 mm diameter) were inserted anterior to the lambdoid suture. A third stabilizing screw was inserted on the left parietal bone. […]
After habituation to the recording room for several days, single-unit recordings were performed at a sampling frequency of 30 kHz using a 32-channel amplifier (Intan Technologies). […] First, a baseline was recorded during sleep identified as epochs when mice were completely immobile in their home cage and slow wave activity could be seen in the PFC local field potential. […]
Recording sections containing artefacts were manually identified and removed. […] Firing rates were estimated from the total number of spikes during the analyzed behavioral episodes divided by the duration. To quantify population synchrony, we utilized a metric that compares the rate change of a given unit to the normalized population rate at each time point. […]

“Also recorded” adds a separate entry of the source.

Regarding `C[N+](C)(C)CCCCC(=O)[O-]` [NNN-trimethyl-5-aminovalerate, 5-(trimethylammonio) pentanoate], the “average spike frequency (spike firing rate)” value is recorded as “No effect; also recorded: no change” and the population coupling result was “significant increase”.
